# Reference: patent US6667387B1, “HCV core peptides” (priority 1992, dated 2003)
# Ends that are not written are not given here.
# Legend:
# [1] = tested on: antibodies in sera from HCV-seropositive donors; test: ELISA with HCV antibody-positive sera (biotinylated peptides on streptavidin- or avidin-coated plates, unbiotinylated peptides coated directly); type: binding, human
# Method in brief: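 Read-out is OD at 450 nm after HRP goat anti-human Ig and TMB development, following 1 h at 37° C. with seropositive or negative sera diluted 1:100 (or 20-fold). Antigen was either unbiotinylated peptide adsorbed on plastic (pH 9.6 carbonate, 2–5 or 3 μg/ml) or biotinylated peptide at 1 μg/ml captured on streptavidin-coated wells, with casein blocking.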
# [2] = ELISA with seronegative / negative control sera (specificity); type: binding, human
# Method in brief: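 Specificity readout is OD at 450 nm (HRP goat anti-human Ig, TMB/H2O2, sulfuric acid stop), with ≥0.250 counted positive. Seronegative donor sera (typically 1:100, 1 h, 37° C) were applied to casein-blocked wells coated with peptide directly or via streptavidin capture of biotinylated peptide.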
sequence,measurement,setting,value
IIPDREVLYREFDEMEECSQ,optical density (450 nm),"[1]; Table 4F, serum 8315, 20-fold dilution",2.614
same,optical density (450 nm),"[1]; Table 4F, serum 8316, 20-fold dilution",0.133
same,optical density (450 nm),"[1]; Table 4F, serum 8317, 20-fold dilution",0.855
same,optical density (450 nm),"[1]; Table 4F, serum 8318, 20-fold dilution",1.965
same,optical density (450 nm),"[1]; Table 4F, serum 8320, 20-fold dilution",0.721
same,optical density (450 nm),"[1]; Table 4F, serum 8321, 20-fold dilution",0.283
same,optical density (450 nm),"[1]; Table 4F, serum 8326, 20-fold dilution",2.219
same,optical density (450 nm),"[1]; Table 5, sample 8242 (positive), peptide concentration 0.01 micrograms per milliliter, listed as Unbiotinylated HCV peptide IX",0.049
same,optical density (450 nm),"[1]; Table 5, sample 8242 (positive), peptide concentration 0.03 micrograms per milliliter, listed as Unbiotinylated HCV peptide IX",0.047
same,optical density (450 nm),"[1]; Table 5, sample 8242 (positive), peptide concentration 0.1 micrograms per milliliter, listed as Unbiotinylated HCV peptide IX",0.046
same,optical density (450 nm),"[1]; Table 5, sample 8242 (positive), peptide concentration 0.3 micrograms per milliliter, listed as Unbiotinylated HCV peptide IX",0.048
same,optical density (450 nm),"[1]; Table 5, sample 8242 (positive), peptide concentration 1.0 micrograms per milliliter, listed as Unbiotinylated HCV peptide IX",0.052
same,optical density (450 nm),"[1]; Table 5, sample 8242 (positive), peptide concentration 3.0 micrograms per milliliter, listed as Unbiotinylated HCV peptide IX",0.059
same,optical density (450 nm),"[1]; Table 5, sample 8243 (positive), peptide concentration 0.01 micrograms per milliliter, listed as Unbiotinylated HCV peptide IX",0.054
same,optical density (450 nm),"[1]; Table 5, sample 8243 (positive), peptide concentration 0.03 micrograms per milliliter, listed as Unbiotinylated HCV peptide IX",0.051
same,optical density (450 nm),"[1]; Table 5, sample 8243 (positive), peptide concentration 0.1 micrograms per milliliter, listed as Unbiotinylated HCV peptide IX",0.051
same,optical density (450 nm),"[1]; Table 5, sample 8243 (positive), peptide concentration 0.3 micrograms per milliliter, listed as Unbiotinylated HCV peptide IX",0.051
same,optical density (450 nm),"[1]; Table 5, sample 8243 (positive), peptide concentration 1.0 micrograms per milliliter, listed as Unbiotinylated HCV peptide IX",0.053
same,optical density (450 nm),"[1]; Table 5, sample 8243 (positive), peptide concentration 3.0 micrograms per milliliter, listed as Unbiotinylated HCV peptide IX",0.063
same,optical density (450 nm),"[1]; Table 5, sample 8320 (positive), peptide concentration 0.01 micrograms per milliliter, listed as Unbiotinylated HCV peptide IX",0.059
same,optical density (450 nm),"[1]; Table 5, sample 8320 (positive), peptide concentration 0.03 micrograms per milliliter, listed as Unbiotinylated HCV peptide IX",0.057
same,optical density (450 nm),"[1]; Table 5, sample 8320 (positive), peptide concentration 0.1 micrograms per milliliter, listed as Unbiotinylated HCV peptide IX",0.063
same,optical density (450 nm),"[1]; Table 5, sample 8320 (positive), peptide concentration 0.3 micrograms per milliliter, listed as Unbiotinylated HCV peptide IX",0.122
same,optical density (450 nm),"[1]; Table 5, sample 8320 (positive), peptide concentration 1.0 micrograms per milliliter, listed as Unbiotinylated HCV peptide IX",0.093
same,optical density (450 nm),"[1]; Table 5, sample 8320 (positive), peptide concentration 3.0 micrograms per milliliter, listed as Unbiotinylated HCV peptide IX",0.129
same,optical density (450 nm),"[1]; Table 5, sample 8326 (positive), peptide concentration 0.01 micrograms per milliliter, listed as Unbiotinylated HCV peptide IX",0.049
same,optical density (450 nm),"[1]; Table 5, sample 8326 (positive), peptide concentration 0.03 micrograms per milliliter, listed as Unbiotinylated HCV peptide IX",0.051
same,optical density (450 nm),"[1]; Table 5, sample 8326 (positive), peptide concentration 0.1 micrograms per milliliter, listed as Unbiotinylated HCV peptide IX",0.068
same,optical density (450 nm),"[1]; Table 5, sample 8326 (positive), peptide concentration 0.3 micrograms per milliliter, listed as Unbiotinylated HCV peptide IX",0.078
same,optical density (450 nm),"[1]; Table 5, sample 8326 (positive), peptide concentration 1.0 micrograms per milliliter, listed as Unbiotinylated HCV peptide IX",0.068
same,optical density (450 nm),"[1]; Table 5, sample 8326 (positive), peptide concentration 3.0 micrograms per milliliter, listed as Unbiotinylated HCV peptide IX",0.084
same,optical density (450 nm),"[2]; Table 4F, negative serum",0.052
same,optical density (450 nm),"[2]; Table 5, sample 1747 (negative), peptide concentration 0.01 micrograms per milliliter, listed as Unbiotinylated HCV peptide IX",0.045
same,optical density (450 nm),"[2]; Table 5, sample 1747 (negative), peptide concentration 0.03 micrograms per milliliter, listed as Unbiotinylated HCV peptide IX",0.045
same,optical density (450 nm),"[2]; Table 5, sample 1747 (negative), peptide concentration 0.1 micrograms per milliliter, listed as Unbiotinylated HCV peptide IX",0.045
same,optical density (450 nm),"[2]; Table 5, sample 1747 (negative), peptide concentration 0.3 micrograms per milliliter, listed as Unbiotinylated HCV peptide IX",0.044
same,optical density (450 nm),"[2]; Table 5, sample 1747 (negative), peptide concentration 1.0 micrograms per milliliter, listed as Unbiotinylated HCV peptide IX",0.046
same,optical density (450 nm),"[2]; Table 5, sample 1747 (negative), peptide concentration 3.0 micrograms per milliliter, listed as Unbiotinylated HCV peptide IX",0.046
same,optical density (450 nm),"[2]; Table 5, sample 1781 (negative), peptide concentration 0.01 micrograms per milliliter, listed as Unbiotinylated HCV peptide IX",0.051
same,optical density (450 nm),"[2]; Table 5, sample 1781 (negative), peptide concentration 0.03 micrograms per milliliter, listed as Unbiotinylated HCV peptide IX",0.049
same,optical density (450 nm),"[2]; Table 5, sample 1781 (negative), peptide concentration 0.1 micrograms per milliliter, listed as Unbiotinylated HCV peptide IX",0.052
same,optical density (450 nm),"[2]; Table 5, sample 1781 (negative), peptide concentration 0.3 micrograms per milliliter",0.051
same,optical density (450 nm),"[2]; Table 5, sample 1781 (negative), peptide concentration 1.0 micrograms per milliliter, listed as Unbiotinylated HCV peptide IX",0.052
same,optical density (450 nm),"[2]; Table 5, sample 1781 (negative), peptide concentration 3.0 micrograms per milliliter",0.053
